One data set concerns plasmid DNA. The data set is described as follows: DNA condensation/complexation, EtBr displacement assay. The data set is classed as binding. As to the method: The ability of the cationic amphiphiles to condense DNA was assessed with an EtBr displacement assay. Briefly, in 96 well plates plasmid DNA (0.6 μg per well) was reacted with 0.002% EtBr in 20 mM HEPES—150 mM NaCl buffer, pH 7.4 and fluorescence intensity was measured at 530 nm (excitation) and 590 nm (emission). Intercalation of EtBr molecules between the base pairs of the DNA double helix results in increased fluorescence signal. Immediately thereafter, the cationic liposomes were added to form complexes at different +/−charge ratios and the quenching of fluorescence intensity of EtBr was monitored. Condensation of DNA upon complexation with liposomes results in the displacement of EtBr from DNA and in decreased fluorescence signal. Fluorescence was measured using FL 500 microplate fluorescence reader (Bio-Tek Instruments Inc., Winooski, Vt., USA).
The values are expressed as percentage of the maximum fluorescence signal when EtBr bound to DNA in the absence of an amphiphile. Each data point is from at least triplicate experiment ±S.D.

Data set [1] has as its system CV-1P (African monkey green kidney fibroblasts cells). Nature of the data set: In vitro transfection of plasmid DNA, β-galactosidase activity per well. The data set is classed as cell-based. To be noted: CVI-P; for transfection, result in words: entry spans the charge ratios 8-0.5. The protocol: Transfer of plasmid DNA by various compounds was investigated by using CV-1P (African monkey green kidney fibroblasts cells) and D407 (human retinal pigment epithelial) cells.
The cells were cultured in Dulbecco's modified Eagle's medium (DMEM, Gibco), supplemented with 10% fetal bovine serum (FBS), penicillin/streptomycin (100 units/ml and 100 μg/ml respectively) and 2 mM L-glutamine for D 407 cell line. Cell cultures were maintained at 37° C. in a 7% CO2/air incubator. The cells were collected, counted and seeded in growth medium (100 μl) into 96-well culture plate, 20 000 cells per well. One day later the medium was replaced with fresh medium without serum (150 μl)
In the case of confluent CV1-P cells the medium (with of without serum) was changed on fourth day of cell growth before the transfection.
The complexes at different derivative/DNA charge ratios for transfection procedure were prepared just before use in 50 mM MES—50 mM HEPES—75 mM NaCl buffer, pH 7.2 in separate 96 well plates. One hour after changing the serum-free medium with 10% serum the complexes were added to the cells at […]. Dose of DNA per well was 0.6 μg. After 5 h the complexes were removed, the cells were washed with PBS, and the normal growth medium was added. After 45 h of incubation at 37° C. the cells were lysed with 2% Triton X 100, twice deep frozen and the β-galactosidase activity in each well was determined spectrofotometrically with ELx800 automated microplate reader (Bio-Tex Instruments Inc., Winooski, Vt. USA) by monitoring the hydrolysis of o-nitrophenylgalactopyranoside (oNPG) at 405 nm. Purified β-galactosidase from E.coli was used to construct a standard curve and to calculate […] activity in the transfected cells. […] Transfection efficiencies are given as percentage in comparison to transfection efficiency of Lipofectin^R.

The next data set concerns CVI-P cells. The data set is described as follows: Cytotoxicity of amphiphile/DNA complexes, percentage of survived cells.
Data set [2] deals with D407 (human retinal pigment epithelial) cells. Nature of the data set: In vitro transfection of plasmid DNA, β-galactosidase activity per well. The note with it: D 407. The data set is classed as cell-based.
Method: The complexes at different derivative/DNA charge ratios for transfection procedure were prepared just before use in 50 mM MES—50 mM HEPES—75 mM NaCl buffer, pH 7.2 in separate 96 well plates. One hour after changing the serum-free medium with 10% serum the complexes were added to the cells at 370C. Dose of DNA per well was 0.6 μg. After 5 h the complexes were removed, the cells were washed with PBS, and the normal growth medium was added. After 45 h of incubation at 37° C. the cells were lysed with 2% Triton X 100, twice deep frozen and the β-galactosidase activity in each well was determined spectrofotometrically with ELx800 automated microplate reader (Bio-Tex Instruments Inc., Winooski, Vt. USA) by monitoring the hydrolysis of o-nitrophenylgalactopyranoside (oNPG) at 405 nm. Purified β-galactosidase from E.coli was used to construct a standard curve and to calculate 9-galactosidase activity in the transfected cells. […] Transfection efficiencies are given as percentage in comparison to transfection efficiency of Lipofectin^R.
Another data set has as its system D 407 cells. The data set is described as follows: Cytotoxicity of amphiphile/DNA complexes, percentage of survived cells. Also noted: concentration or dose not given beside the values. The data set is classed as cell-based, human.
[3] abbreviates: amphiphile/DNA +/− charge ratio 0.5.
Setting [4] is: amphiphile/DNA +/− charge ratio 1.
[5] abbreviates: amphiphile/DNA +/− charge ratio 2.
The mark [6] stands for this setting: amphiphile/DNA +/− charge ratio 4.
The mark [7] stands for this setting: amphiphile/DNA +/− charge ratio 8.

Results on eight compounds are retold here after patent publication US20030064954A1, “Cationic amphiphilic 1,4-dihydropyridine derivatives useful for delivery of nucleotide containing compounds” (priority 2000, published 2003).

Where “and” joins values, the source holds several entries; their conditions need not be identical. Equal entries are not always repeated.

`CCCCCCCCCCCCCCCC(=O)OCC(COC(=O)C1=C(C)NC(C)=C(C(=O)OCC(COC(=O)CCCCCCCCCCCCCCC)OC(=O)CCCCCCCCCCCCCCC)C1c1ccc[n+](C)c1)OC(=O)CCCCCCCCCCCCCCC.I.[I-]` (centres unmarked) [IX, 3′,5′-Bis [(2,3-dipalmitoyloxypropoxy)carbonyl]-1′,4′-dihydro-1,2′,6′-trimethyl-3,4′-bipyridinium iodide]: the “complexation, percentage of the maximum fluorescence signal when EtBr bound to DNA in the absence of an amphiphile” value was 101,6% and 97,8% in the data set on plasmid DNA (setting [3]); 101,6% and 97,5% in the data set with plasmid DNA (setting [4]); 103,3% and 97,5% with plasmid DNA (setting [5]); 97,8% and 98,4% in the data set on plasmid DNA (setting [6]); 98,5% and 106,1% with plasmid DNA (setting [7]). For the same compound, the “transfection, result in words” value in data set [1] is listed as “No signal”. Further, the “cytotoxicity as a percentage of survived cells” value (“cytotoxicity as a percentage” below) was 83,11% and 90,48% in the data set on CVI-P cells (setting [3]); 84,63% and 107,13% in the data set with CVI-P cells (setting [4]); 97,34% and 120,34% with CVI-P cells (setting [5]); 106,62% and 117,42% with CVI-P cells (setting [6]); 100,65% and 124,54% in the data set on CVI-P cells (setting [7]).
With `CCCCCCCC/C=C\CCCCCCCC(=O)OCC(C[N+](C)(C)C)OC(=O)CCCCCCC/C=C\CCCCCCCC.[Cl-]` (centres unmarked) [DOTAP, N-(1-(2,3-dioleoyloxy)propyl)-N,N,N-trimethylammoniummethyl-sulfate, reference compound], the “complexation, percentage of the maximum fluorescence signal when EtBr bound to DNA in the absence of an amphiphile” value is reported as 86,72% in the data set on plasmid DNA (setting [3]), 76,11% with plasmid DNA (setting [4]), 69,15% with plasmid DNA (setting [5]) and 65,47% in the data set on plasmid DNA (setting [7]). Moreover, the transfection efficiency in data set [1] (setting [3]) is on record as 0,61 β-galactosidase units per well; in data set [1] (setting [4]) it was 0,9 β-galactosidase units per well; in data set [1] (setting [5]), 15,58 β-galactosidase units per well; in data set [1] (setting [6]), 10,5 β-galactosidase units per well; in data set [1] (setting [7]) it was 3,19 β-galactosidase units per well; in data set [2] (setting [3]) it was 0,7 β-galactosidase units per well. The transfection efficiency in data set [2] (setting [4]) is 4,8 β-galactosidase units per well; in data set [2] (setting [5]), 25,05 β-galactosidase units per well; in data set [2] (setting [6]), 19,6 β-galactosidase units per well; in data set [2] (setting [7]), 4,92 β-galactosidase units per well. The “cytotoxicity as a percentage” value was 85,08% in the data set on D 407 cells (setting [3]); 87,48% with D 407 cells (setting [4]); 80,32% with D 407 cells (setting [5]); 81,34% in the data set with D 407 cells (setting [6]); 76,11% in the data set with D 407 cells (setting [7]); 92,45% with CVI-P cells (setting [3]). Moreover, the “cytotoxicity as a percentage” value in the data set with CVI-P cells (setting [4]) was 92,09%; in the data set on CVI-P cells (setting [5]), 91,87%; with CVI-P cells (setting [6]) it was 97,89%; in the data set with CVI-P cells (setting [7]), 102,3%.
For `Br.CCCCCCCCCCCCCCOC(=O)C1=C(C)NC(C)=C(C(=O)OCCCCCCCCCCCCCC)C1c1ccc[n+](CCCC)c1.[Br-]` [XXI, 1-Butyl-1′,4′-dihydro-2′,6′-dimethyl-3′,5′-bis(tetradecyloxycarbonyl)-3,4′-bipyridinium bromide], in data set [1], the “transfection, result in words” value is “No signal”.
With `CCCCCCCCCOC(=O)C1=C(C)NC(C)=C(C(=O)OCCCCCCCCC)C1c1ccc[n+](C)c1.I.[I-]` [IV, 1′,4′-Dihydro-1,2′,6′-trimethyl-3′,5′-bis(nonyloxycarbonyl)-3,4′-bipyridinium iodide], in data set [1], the “transfection, result in words” value is recorded as “No signal”.
Consider `CCCCCCCCCCCCCCCCOCCCOC(=O)C1=C(C)NC(C)=C(C(=O)OCCCOCCCCCCCCCCCCCCCC)C1c1ccc[n+](C)c1.[I-]` [II], for which the “complexation, percentage of the maximum fluorescence signal when EtBr bound to DNA in the absence of an amphiphile” value in the data set with plasmid DNA (setting [3]) is reported as 92,2%; with plasmid DNA (setting [4]) it was 85,6%; with plasmid DNA (setting [5]), 77,2%; with plasmid DNA (setting [6]), 74,8%; with plasmid DNA (setting [7]), 72,4%. Also, the “transfection, result in words” value in data set [1] is reported as “No signal”. The “cytotoxicity as a percentage” value in the data set with CVI-P cells (setting [3]) was 111,42%; in the data set on CVI-P cells (setting [4]), 101,24%; in the data set with CVI-P cells (setting [5]) it was 102,9%; with CVI-P cells (setting [6]) it was 79,08%; in the data set with CVI-P cells (setting [7]), 99,23%.
For the compound `CCCCCCCCC=CCCCCCCCCOC(=O)C1=C(C[n+]2ccccc2)NC(C[n+]2ccccc2)=C(C(=O)OCCCCCCCCC=CCCCCCCCC)C1c1ccccc1.[Br-].[Br-]` (centres unmarked) [XXVI, 1,1′-[(3,5-Dioctadec-9′-enyloxycarbonyl-4-phenyl-1,4-dihydropyridine-2,6-diyl)dimethylene]bispyridinium dibromide], the “transfection, result in words” value in data set [1] is listed as “No signal”.
Turning to `CCCCCCCCCCOC(=O)C1=C(C[n+]2ccccc2)NC(C[n+]2ccccc2)=C(C(=O)OCCCCCCCCCC)C1c1ccccc1.[Br-].[Br-]` [XXII, 1,1′-{[3,5-Bis(decyloxycarbonyl)-1,4-dihydro-4-phenylpyridine-2,6-diyl]dimethylene}bispyridinium dibromide], the “complexation, percentage of the maximum fluorescence signal when EtBr bound to DNA in the absence of an amphiphile” value in the data set with plasmid DNA (setting [3]) is 77,8%; in the data set on plasmid DNA (setting [4]), 58,8%; in the data set on plasmid DNA (setting [5]), 48,1%; in the data set on plasmid DNA (setting [6]), 45,1%; with plasmid DNA (setting [7]), 43,5%. The “transfection, result in words” value in data set [1] is listed as “No signal”. The “cytotoxicity as a percentage” value in the data set with CVI-P cells (setting [3]) is reported as 95,71%; in the data set on CVI-P cells (setting [4]), 87,2%; in the data set with CVI-P cells (setting [5]) it was 84,01%; in the data set on CVI-P cells (setting [6]) it was 78,2%; with CVI-P cells (setting [7]), 46,74%.
Take `CCCCCCCCCCOC(=O)C1=C(C[N+](C)(C)CCCCCCCC)NC(C[N+](C)(C)CCCCCCCC)=C(C(=O)OCCCCCCCCCC)C1c1ccccc1.[Br-].[Br-]` [XXVII, N,N′-{[3,5-Bis(decyloxycarbonyl)-1,4-dihydro-4-phenyl-pyridine-2,6-diyl]dimethylene}-N,N,N′,N′-tetramethyl-N,N′-dioctyldiammonium dibromide]: the “DNA condensing capacity (mark in Table 2)” value in the data set on plasmid DNA was found to be 23a/XXVII*. Moreover, the transfection efficiency in data set [1] (setting [3]) is given as 0,24 β-galactosidase units per well; in data set [1] (setting [4]), 1,63 β-galactosidase units per well; in data set [1] (setting [5]), 36,55 β-galactosidase units per well; in data set [1] (setting [6]) it was 21,46 β-galactosidase units per well; in data set [1] (setting [7]) it was 3,14 β-galactosidase units per well. Also, the “cytotoxicity as a percentage” value was 105,03% with CVI-P cells (setting [3]); 98,37% with CVI-P cells (setting [4]); 88,41% in the data set with CVI-P cells (setting [5]); 24,62% in the data set with CVI-P cells (setting [6]); 13,46% with CVI-P cells (setting [7]).
